In patent US10807960B2, “Compounds, compositions, and methods for controlling biofilms” (KATHOLIEKE UNIVERSITEIT LEUVEN, priority 2015, dated 2020):
Where two headings read alike, the source gives them in different places.

Experiments:
E. coli TG1 = experiment: static peg (Calgary Biofilm Device) anti-biofilm assay, crystal violet and OD600; conditions: for IC50: 37° C.
P. aeruginosa PA14 = experiment: as above
C. albicans SC5314 = experiment: inhibition of C. albicans biofilms, cell titer blue (CTB) quantification; type: cell-based, Candida albicans; conditions: for IC50: biofilm formation, 37° C., read-out: BIC50; for anti-biofilm activity (in words): monospecies biofilm, novel compounds: highest concentration tested 100 μM
Protocol: The potential of the compounds to prevent C. albicans SC5314 biofilm formation was assessed using the cell titer blue (CTB) quantification method (26). For the CTB method, an overnight culture of C. albicans SC5314 was washed with PBS and a cell suspension of 10^6 cells/ml (OD600=0.1) was prepared in RPMI 1640 medium (pH 7.0). […] After 16 h of static incubation at 37° C., biofilms were washed and quantified with CTB as described previously.

[1] = test system: S. aureus ATCC6538 + S. epidermidis; experiment: mixed S. aureus/S. epidermidis biofilm assay, crystal violet; type: cell-based; conditions: 37° C. (Table 3)
Protocol: Overnight cultures of S. aureus ATCC6538 and S. epidermidis were grown in LB medium and were diluted 1/200 in the same vial of TSB to form a mixed culture suspension.

S. Typhimurium ATCC14028 = experiment: static peg (Calgary Biofilm Device) anti-biofilm assay, crystal violet and OD600
B. cepacia LMG1222T = experiment: as above; conditions: for IC50: 25° C.
[2] = test system: E. coli TG1 + P. aeruginosa PA14; experiment: mixed E. coli/P. aeruginosa biofilm assay, crystal violet; type: cell-based; conditions: for IC50: 37° C. (Table 3)
Protocol: Overnight cultures of E. coli TG1 and P. aeruginosa PA14, were diluted 1/100 in the same vial of TSB 1/20 to form a mixed culture suspension.

S. aureus SH1000 = experiment: static peg (Calgary Biofilm Device) anti-biofilm assay, crystal violet and OD600; conditions: for IC50: 37° C.
S. liquefaciens MG44 = experiment: as above; type: cell-based, Serratia liquefaciens; conditions: 25° C.
S. aureus ATCC6538 = experiment: as above; conditions: 37° C.
S. epidermidis = experiment: as above; conditions: for IC50: 37° C.
P. gingivalis ATCC33277 = experiment: as above
[3] = test system: C. albicans SC5314 + S. epidermidis; experiment: mixed C. albicans/S. epidermidis biofilm assay, selective plating; type: cell-based, Candida albicans; Staphylococcus epidermidis; conditions: for activity at 25 µM: 25 μM (Table 5); for activity at 100 µM: 100 μM (Table 5)
Protocol: The concentrations 25 μM (0.0625% DMSO or ethanol) and 100 μM (0.25% DMSO or ethanol) were tested. After 24 h of incubation at 37° C., biofilms were washed with PBS and fresh medium with or without compounds was added. After further incubation for 48 h at 37° C., the biofilms were washed with PBS after which the cells were re-suspended in 100 μl of PBS by scraping off, sonication (1 min, 45 kHz, USC300-T; VWR, Radnor, Pa., USA) and vigorously pipetting up-and-down. Finally, the biofilm cells were diluted in PBS and plated on YPD agar plates containing 100 mg/L ampicillin and TSA plates containing 25 mg/L amphotericin B, to determine the number of fungal and bacterial CFUs after 2 days of incubation at 37° C., respectively. The percentage of C. albicans SC5314 and S. epidermidis cells was determined relative to the DMSO or ethanol control treatment.

osteoblasts (OB) [4] = experiment: mammalian-cell viability assay, trypan blue staining; type: cell-based; conditions: 12.5 μM; for proliferation (in words): 6 days exposure
Protocol: (§1) Cell viability of two human primary cell types, namely, osteoblasts (OB) and bone-marrow derived mesenchymal stem cells (MSC) was tested according to the ISO 10993-5 standard, as previously described. Briefly, cells were seeded in 96-well tissue culture test plates (TPP, Switzerland) at 5×10^3 cells/cm^2 in Advanced DMEM cell culture media supplemented with 10% serum, 1× GlutaMAX, 0.05 mg/mL Gentamycin, and were allowed to attach overnight. The next day, the cells were exposed to (i) cell culture medium and medium with the corresponding control (0.5% ethanol or DMSO) (negative controls), (ii) medium with 0.05% phenol (cytotoxic control), and (iii) medium with compounds (12.5 μM) and incubated for 2 h, 48 h and 6 days (8 repeats for each condition). At each time-point the numbers of viable and dead cells were determined directly by trypan blue staining, and indirectly by measuring the metabolic activity with MTT (3-(4,5-dimethylthiazol-2-yl)-2,5-diphenyltetrazolium bromide) staining.
(§2) The medium was removed from the wells, and 1/3 trypan blue in Dulbecco's modified Eagle's medium (DMEM) was added to the cells, incubated for 3 min, after which trypan blue was removed and DMEM medium was added to the wells. In each of four wells, two microscopy fields were counted for viable (transparent) and dead (blue) cells.

osteoblasts (OB) [5] = experiment: osteogenic differentiation, calcium and DNA assay; type: cell-based, human; conditions: 12.5 μM, calcium content normalized by DNA, versus solvent control
Protocol: (§3) The effect on osteogenic differentiation potential was assessed as previously described. Only the substances that allowed survival of the cells for more than 3 weeks, which is the time needed for mature osteogenic differentiation, were tested. Briefly, osteoblasts and bone-marrow derived mesenchymal stem cells were cultured in a positive solvent control (osteogenic medium with 0.5% DMSO or ethanol background), a negative control (medium without osteogenic supplements) and treated samples (osteogenic medium, 0.5% DMSO or ethanol background and 12.5 μM of test compound) with four repeats per condition. Mesenchymal stem cells and osteoblast cell cultures were harvested after 3 or 5 weeks, respectively, for the calcium and DNA assay.
(§4) Calcium deposition of osteoblasts and mesenchymal stem cells was measured with the Calcium CPC LiquiColor test (Stanbio Laboratory, Boerne, Tex.) as previously described. Briefly, cell cultures were extracted with 5% trichloroacetic acid (500 μl per sample), O-cresolphtalein complex was added, and the calcium content was determined spectrophotometrically at 550 nm. DNA content was determined as previously described. DNA values were used to normalize the calcium content. Four wells per condition were examined, and two samples from each well were taken for each assay.

[6] = test system: bone-marrow derived mesenchymal stem cells (MSC); experiment: osteogenic differentiation, calcium and DNA assay; type: cell-based, human; conditions: 12.5 μM, calcium content normalized by DNA, versus solvent control
Protocol: as §3, §4

osteoblasts (OB) [7] = experiment: metabolic activity, MTT staining; type: cell-based; conditions: 12.5 μM, 6 days treatment
Protocol: as §1
(§5) The medium was removed from the wells and 100 μl of medium, supplemented with 10% serum and 0.5 mg/mL MTT was added to the cells. The cells were incubated overnight at 37° C. and 5% CO2. The next day the medium with MTT was removed and 100 μl acidic isopropanol was added. The cells were then centrifuged at 2300 g and 50 μl of the supernatant was transferred to a new 96-well plate. The absorbance was measured at 570 nm and the background was measured at 660 nm. Four wells per condition were examined.

[8] = test system: bone-marrow derived mesenchymal stem cells (MSC); experiment: metabolic activity, MTT staining; type: cell-based; conditions: 12.5 μM, 6 days treatment
Protocol: as §1, §5

[9] = test system: bone-marrow derived mesenchymal stem cells (MSC); experiment: mammalian-cell viability assay, trypan blue staining; type: cell-based; conditions: 12.5 μM, 6 days exposure
Protocol: as §1, §2

[10] = read-out: BIC50, biofilm formation
[11] = read-out: BIC50, biofilm formation, 25° C.
[12] = read-out: BIC50, biofilm formation, 37° C.
[13] = mixed biofilm formation, read-out: BIC50
[14] = planktonic growth of mixed culture, read-out: IC50
[15] = biofilm formation, read-out: BIC50
[16] = planktonic growth, read-out: IC50
[17] = C. albicans in mixed biofilm with S. epidermidis, read-out: CFUs % survival C.a.

## Brc1ccc(-c2cnc(NCCn3cc(C4CC4)nn3)[nH]2)cc1 [Compound 6]
E. coli TG1; planktonic growth
  IC50: 183 µM
E. coli TG1; [10]
  IC50: ~192 µM
P. aeruginosa PA14; monospecies biofilm, 37° C.
  anti-biofilm activity (in words): No activity
P. aeruginosa PA14; planktonic growth, 25° C.
  IC50: > 400 µM
P. aeruginosa PA14; planktonic growth, 37° C.
  IC50: > 400 µM
P. aeruginosa PA14; [11]
  IC50: 71.6 µM
P. aeruginosa PA14; [12]
  IC50: > 400 µM
C. albicans SC5314
  IC50: > 400 µM
  anti-biofilm activity (in words): No activity
[1]; [13]
  IC50: 33.9 µM
[1]; [14]
  IC50: ~392 µM
S. Typhimurium ATCC14028; planktonic growth, 25° C.
  IC50: 2.4 µM
S. Typhimurium ATCC14028; [10]
  IC50: 2 µM
B. cepacia LMG1222T; monospecies biofilm
  anti-biofilm activity (in words): No activity
B. cepacia LMG1222T; planktonic growth
  IC50: > 400 µM
B. cepacia LMG1222T; [10]
  IC50: > 400 µM
[2]; [13]
  IC50: 34.6 µM
[2]; [14]
  IC50: > 400 µM
S. aureus SH1000; monospecies biofilm
  anti-biofilm activity (in words): No activity
S. aureus SH1000; planktonic growth
  IC50: > 400 µM
S. aureus SH1000; [10]
  IC50: > 400 µM
S. liquefaciens MG44; [15]
  IC50: 63.3 µM
S. liquefaciens MG44; [16]
  IC50: > 400 µM
S. aureus ATCC6538; planktonic growth
  IC50: > 400 µM
S. aureus ATCC6538; [10]
  IC50: 75.2 µM
S. epidermidis; monospecies biofilm
  anti-biofilm activity (in words): No activity
S. epidermidis; planktonic growth
  IC50: > 400 µM
S. epidermidis; [10]
  IC50: > 400 µM
P. gingivalis ATCC33277; planktonic growth, 37° C.
  IC50: 19.5 µM
P. gingivalis ATCC33277; [10]
  IC50: 18.1 µM

## CCCCCCCCn1c(-c2ccc(Br)cc2)cnc1NCC(C)C [Compound 8c, 5-(4-bromophenyl)-N-isobutyl-1-octyl-1H-imidazol-2-amine]
[3]
  effect on the C. albicans/S. epidermidis mixture (in words): only reduced C. albicans
[3]; [17]
  activity at 25 µM: 3.2%
  activity at 100 µM: 8.4%
Osteoblasts (OB) [4]
  proliferation (in words): increase in proliferation
Osteoblasts (OB) [4]; 6 days of exposure, trypan blue
  cell viability (in words): very slightly reduced viability
C. albicans SC5314
  anti-biofilm activity (in words): not active
Osteoblasts (OB) [5]
  calcium deposition (in words): induced the calcium deposition
[6]
  calcium deposition (in words): induced the calcium deposition
Osteoblasts (OB) [7]
  metabolic activity compared to the solvent control (in words): increased
[8]
  metabolic activity compared to the solvent control (in words): increased

## CCCCNc1ncc(-c2ccc(Br)cc2)[nH]1 [Compound 4]
E. coli TG1; planktonic growth
  IC50: 23 µM
E. coli TG1; [10]
  IC50: 84.7 µM
P. aeruginosa PA14; planktonic growth, 37° C.
  IC50: > 400 µM
P. aeruginosa PA14; [11]
  IC50: 9.8 µM
P. aeruginosa PA14; [12]
  IC50: > 400 µM
C. albicans SC5314
  IC50: 66.7 µM
[1]; [13]
  IC50: 6.8 µM
[1]; [14]
  IC50: ~118 µM
S. Typhimurium ATCC14028; [11]
  IC50: 7.1 µM
B. cepacia LMG1222T; planktonic growth
  IC50: > 400 µM
B. cepacia LMG1222T; [10]
  IC50: 189 µM
[2]; [13]
  IC50: 17.8 µM
[2]; [14]
  IC50: > 400 µM
S. aureus SH1000; planktonic growth
  IC50: 89.4 µM
S. aureus SH1000; [10]
  IC50: 66.5 µM
S. liquefaciens MG44; [15]
  IC50: 4.4 µM
S. liquefaciens MG44; [16]
  IC50: 118 µM
S. aureus ATCC6538; planktonic growth
  IC50: 60.1 µM
S. aureus ATCC6538; [10]
  IC50: ~12.3 µM
S. epidermidis; planktonic growth
  IC50: 54.4 µM
S. epidermidis; [10]
  IC50: > 400 µM
P. gingivalis ATCC33277; planktonic growth, 37° C.
  IC50: 8.2 µM
P. gingivalis ATCC33277; [12]
  IC50: 3.7 µM

## CCCCCCCCn1c(-c2ccccc2)cnc1NC1CCCC1 [Compound 8e, N-cyclopentyl-1-octyl-5-phenyl-1H-imidazol-2-amine]
E. coli TG1; biofilm at 37° C.
  anti-biofilm activity (in words): showed activity
E. coli TG1; biofilm cells at 25° C.
  anti-biofilm activity (in words): potent activity
[3]; [17]
  activity at 25 µM: 10%
  activity at 100 µM: 2.5%
[3]; S. epidermidis in mixed biofilm with C. albicans, read-out: CFUs % survival Se.
  activity at 100 µM: 0%
Osteoblasts (OB) [4]
  proliferation (in words): slightly reduced
[9]
  proliferation (in words): slightly reduced
[2]
  inhibition of the mixed biofilm P. aeruginosa/E. coli (in words): at higher concentrations
